Assay results as given in paper PMC7767178 (International Journal of Molecular Sciences, 2020).
Read-outs that look alike come from different tables or passages of the source. Positions of bridges follow the written chain, without caps; N, C: chain ends. Residues, ends and D or L forms follow the SMILES beside them.

Experiments:
[1] = in vitro; details: mouse, 25% mouse serum
[2] = test system: Aeromonas veronii ACCC61732
Method: (§1) Briefly, the tested strains including Gram-negative bacteria, Gram-positive bacteria, and fungi were cultured to the logarithmic growth phase, diluted to 10^5 CFU/mL, and added into 96-well plates (90 μL/well). Two-fold serial dilutions of peptides or antibiotics dissolved in PBS were added to each well (10 μL/well). […] All experiments were repeated three times.

[3] = test system: S. aureus ATCC546
Method: as §1

[4] = test system: A. veronii ACCC61732 genomic DNA; assay: CD spectra of genomic DNA with peptides; format: binding; details: mass ratios 2.5 and 10.0, 10 min, room temperature
Method: CD spectra were performed to examine the secondary structure of genomic DNA from A. veronii ACCC61732 after incubation with peptides. […] The mixtures were loaded into a cuvette of 1.0-mm path length and scanned from 190 to 330 nm at 25 °C using a Pistar π-180 CD spectrometer (Applied Photophysics Ltd., Surry, UK).

[5] = test system: A. veronii ATCC35624; format: cell-based
[6] = test system: Salmonella typhimurium ATCC14028; format: cell-based
[7] = test system: A. veronii ACCC61732; assay: ATP release, BacTiter-Glo; format: cell-based; details: 8×, 16× and 32× MIC, 60 min, 37 °C, luminescence, n = 3
Method: The assay was performed for three biological replicates at 37 °C, with luminescence recorded using a Tecan Infinite M1000 Pro plate reader. The fold reduction of ATP was calculated as: Fold reduction ATP = 1 − (Ltreat − Lmedia/Lcontrol − Lmedia), where Ltreat is the luminescence of treated cells, Lmedia is the luminescence of MHB without cells, and Lcontrol is the luminescence of untreated cells. Resultant graphs show mean (n = 3) and SEM for each data point, prepared in Prism 7 [46].

[8] = test system: A. veronii ACCC61732; assay: microbe, parasite or virus in culture; format: cell-based
Excerpt: The checkerboard microtiter assay was used to determine the combinations of peptides with different antibiotics (including quinolone, rifamycin, peptide antibiotics, aminoglycoside, tetracycline, and chloramphenicol). […] The fractional inhibitory concentration (FIC) was used to calculate the combination effects using the following formula: FIC index (FICI) = MIC(peptide in combination)/MIC(peptide alone) + MIC(antibiotic in combination)/MIC(antibiotic alone). FICI ≤ 0.5 means synergistic, 0.5 < FICI ≤ 1 means additive action, 1 < FICI ≤ 4 means indifference, and FICI > 4 means antagonism.

[9] = test system: A. veronii ACCC61732; assay: Mouse peritonitis model, bacterial translocation to organs; format: in vivo, ICR mice; details: 24 h post-treatment, colony counting
Method: Sera and organs (livers, kidneys, spleens, and lungs) were collected from the mice at 24 h post-treatment. The organs were homogenized in sterile PBS to evaluate bacterial translocation by colony counting. The levels of cytokines (TNF-α, IL-1β, IL-6, and IL-10) in sera were detected using the ELISA kits.

[10] = test system: A. veronii ACCC61732 biofilms; assay: Mouse model of catheter-associated biofilm infection, bacteria in catheter; format: in vivo, ICR mice; details: 5 μmol/kg peptide or CIP 24 h after catheter implantation, catheters collected after seven days, six mice per group
Method: Briefly, the catheter was cut into 1 cm segments; each piece was sterilized with 70% ethanol and then dried by air. Bacterial biofilms were developed on the catheter by placing individual segments into tubes containing 1.0 mL of a cell suspension (1 × 10^8 CFU/mL) in TSB. After incubation for 24 h at 37 °C, colonized catheters were recovered aseptically and rinsed with PBS to remove unbound bacteria. ICR female mice (20 ± 5 g) were anesthetized with isoflurane; the flanks were shaved and the skin was cleansed with alcohol. […] The incision was then covered with intact skin and closed with surgical suture line and the skin was disinfected. […] The untreated mice were used as the negative control and the mice with sterile catheter were used as the blank control. The mice were anesthetized and sacrificed after seven days. The catheters in the back of the mice were collected and thoroughly shaken in sterile PBS.

[11] = test system: A. veronii ACCC61732 mature biofilms; assay: Eradication of mature biofilms, crystal violet; format: cell-based; details: 16× MIC, 24 h on 24 h biofilm
Method: A. veronii ACCC61732 cells (1 × 10^8 CFU/mL) were cultured in TSB medium in the 96-well plates at 37 °C for 24 h.

[12] = test system: A. veronii ACCC61732; assay: Organ injury in peritonitis model, histology; format: in vivo, mice; details: peptides 5 μmol/kg, CIP 1 μmol/kg
Method: Livers, kidneys, spleens, and lungs were removed from mice at 24 h and five days post treatment to evaluate the organ injury. After washing with PBS, the organs were fixed in 4% paraform-aldehyde for 24 h at 4 °C, dehydrated by a graded series of ethanol (75‒95%), and infiltrated with xylene. The organs were then embedded in paraffin wax, sectioned, and stained with hematoxylin and eosin. Finally, the tissue samples were fixed and observed by the light microscope. The CIP-treated mice served as the positive control and the PBS group served as the negative control.

[13] = test system: MDR A. veronii ACCC61732; assay: Mouse peritonitis model, survival; format: in vivo, ICR mice; details: seven days, six mice
Method: […]. The mice injected with only bacteria or saline served as the negative and blank control. The mouse survival was recorded daily for seven days.

[14] = test system: mouse erythrocytes; assay: Hemolysis; format: cell-based; details: 256 μg/mL; 8% mouse erythrocyte suspension, 37 °C, 1 h, absorbance 540 nm
Method: To determine the hemolysis of peptides, eyeball blood was collected from 6-week-old SPF ICR mice. The blood was centrifuged at 4 °C for 10 min (1500 rpm), washed three times with 0.9% physiological saline, and diluted to 8% suspension. […] Red blood cell suspensions and peptide solutions (100 μL) were mixed in 96-well plates, centrifuged at 4 °C for 5 min (1500 rpm), and incubated at 37 °C for 1 h. The supernatant was added into a 96-well plate and the UV absorbance was measured at 540 nm using a microplate reader. Physiological saline and 0.1% Triton X-100 were used as 0% and 100% hemolytic controls, respectively. The hemolytic ratio was calculated as follows: Hemolysis (%) = [(Abspeptide − Abssaline)/(Abs0.1%Triton X-100 − Abssaline)] × 100% [38].

[15] = Aeromonas veronii ACCC61732 (MDR), broth dilution, 37 °C, 16–18 h, three experiments
[16] = S. aureus ATCC546, broth dilution, 37 °C, 16–18 h, three experiments
[17] = A. veronii ATCC35624, broth dilution, 37 °C, 16–18 h, three experiments
[18] = Salmonella typhimurium ATCC14028, broth dilution, 37 °C, 16–18 h, three experiments

Compound | remaining at 2 h [1] | remaining at 4.5 h [1] | remaining at 6 h [1] | MIC [2] | MIC [2, 15] | MIC ([3]; ATCC546) | MIC [3, 16] | effect on CD spectrum of genomic DNA [4] | MIC [5, 17] | MIC ([5]; ATCC35624) | MIC [6, 18] | ATP release [7] | interaction with polymyxin B (PMB) ([8]; checkerboard, by FICI) | decrease of bacterial cells in the catheter [10] | effect on injury of liver, spleen, kidney and lung [12] | reduction of bacteria in kidneys ([9]; 5 μmol/kg) | reduction of bacteria in livers ([9]; 5 μmol/kg) | reduction of bacteria in lungs ([9]; 5 μmol/kg) | reduction of bacteria in spleens ([9]; 5 μmol/kg) | further results
CC(C)[C@@H]1NC(=O)CNC(=O)[C@H](CC(N)=O)NC(=O)[C@H](CCCNC(=N)N)NC(=O)[C@H](Cc2ccc(O)cc2)NC(=O)[C@H](C(C)C)NC(=O)[C@@H](NC(=O)[C@@H](NC(=O)[C@H](CC(N)=O)NC(=O)[C@H](Cc2c[nH]c3ccccc23)NC(=O)[C@H](C)NC(=O)[C@H](Cc2ccccc2)NC(=O)[C@H](CCCN)N=C(N(C)C)N(C)C)C(C)C)CSSC[C@@H](C(=O)N[C@@H](Cc2c[nH]cn2)C(=O)N[C@@H](CCCNC(=N)N)C(=O)N[C@@H](CCCNC(=N)N)C(=O)N[C@@H](C)C(=O)N[C@@H](CC(N)=O)C(N)=O)NC(=O)[C@H](C(C)C)NC(=O)[C@H](CCCNC(=N)N)NC1=O (stereo in doubt) [Guo-N6NH2] | 84% | 56.8% | 44.2% | 3.04 µM | 8 µg/mL | 6.08 µM | 16 µg/mL | do not affect the double helix of genomic DNA | 32 µg/mL | 12.16 µM | 4 µg/mL | 66.23–92.09% | synergic effect |  |  |  |  |  |  | MIC, control ([2]; Table S6 control: absence of temperature, acid and alkali, salt and enzyme condition): 8 µg/mL; MICa, MIC of the peptide used alone [8]: 8 µg/mL
O=C(O)c1cn(C2CC2)c2cc(N3CCNCC3)c(F)cc2c1=O [CIP, ciprofloxacin, reference compound] |  |  |  |  |  |  |  |  |  |  |  | 7.06–47.60% |  | 28.72% | weak therapeutic effect |  |  |  |  | reduction of bacteria in kidneys ([9]; 1 μmol/kg): 60.14%; reduction of bacteria in livers ([9]; 1 μmol/kg): 54.55%; reduction of bacteria in lung ([9]; 1 μmol/kg): 62.27%; reduction of bacteria in spleens ([9]; 1 μmol/kg): 53.62%; MIC ([8]; Aeromonas veronii, ACCC61732, read-out: MICa, MIC of the antibiotic used alone): 0.125 µg/mL; inhibition of mature biofilms [11]: 89.87%; survival rate of mice ([13]; 1 μmol/kg i.p. 0.5 h after infection): 83.33%
CC(C)[C@@H]1NC(=O)CNC(=O)[C@H](CC(N)=O)NC(=O)[C@H](CCCNC(=N)N)NC(=O)[C@H](Cc2ccc(O)cc2)NC(=O)[C@H](C(C)C)NC(=O)[C@@H](NC(=O)[C@@H](NC(=O)[C@H](CC(N)=O)NC(=O)[C@H](Cc2c[nH]c3ccccc23)NC(=O)[C@H](C)NC(=O)[C@H](Cc2ccccc2)NC(=O)CN)C(C)C)CSSC[C@@H](C(=O)N[C@@H](Cc2cnc[nH]2)C(=O)N[C@@H](CCCNC(=N)N)C(=O)N[C@@H](CCCNC(=N)N)C(=O)N[C@@H](C)C(=O)N[C@@H](CC(N)=O)C(N)=O)NC(=O)[C@H](C(C)C)NC(=O)[C@H](CCCNC(=N)N)NC1=O [N6NH2] | 85.9% | 58% | 41.9% |  | 4 µg/mL | 6.46 µM | 16 µg/mL | do not affect the double helix of genomic DNA | 8 µg/mL | 3.23 µM | 4 µg/mL | 56.07–90.00% | synergic effect | 41.48% | remarkably alleviated the injury of the liver and spleen | 80.52% | 72.94% | 71.89% | 77.86% | interaction with rifampicin, streptomycin sulfate, doxycycline hyclate, and kanamycin sulfate ([8]; checkerboard, by FICI): additive effects
CC(C)[C@H](N)C(=O)N[C@@H](Cc1ccccc1)C(=O)N[C@@H](C)C(=O)N[C@@H](Cc1c[nH]c2ccccc12)C(=O)N[C@@H](CC(N)=O)C(=O)N[C@H](C(=O)N[C@H]1CSSC[C@@H](C(=O)N[C@@H](Cc2c[nH]cn2)C(=O)N[C@@H](CCCNC(=N)N)C(=O)N[C@@H](CCCNC(=N)N)C(=O)N[C@@H](C)C(=O)N[C@@H](CC(N)=O)C(N)=O)NC(=O)[C@H](C(C)C)NC(=O)[C@H](CCCNC(=N)N)NC(=O)[C@H](C(C)C)NC(=O)[C@H](C(C)C)NC(=O)[C@H](CC(N)=O)NC(=O)[C@H](CCCNC(=N)N)NC(=O)[C@H](Cc2ccc(O)cc2)NC(=O)[C@H](C(C)C)NC1=O)C(C)C [V112N6NH2] (H-VFAWNVCVYRNVVRVCHRRAN-NH2; disulfide 7-16 (inferred)) | 81.4% | 32.1% | 19.1% | 6.25 µM | 16 µg/mL | 6.25 µM | 16 µg/mL | do not affect the double helix of genomic DNA | 16 µg/mL | 6.25 µM | 16 µg/mL |  |  | 55.29% | significantly less damaged | 63.42% | 52.71% | 83.57% | 63.87% | hemolysis [14]: 4.59%; MIC ([6]; ATCC14028): 6.25 µM; survival rate of mice ([13]; 5 μmol/kg i.p. 0.5 h after infection): 66.67%
